Source: ChEMBL document CHEMBL5113514 (J Med Chem, 2022)
Calls of active or inactive are those of the source. No cut-off for these calls is given here.

What was measured:
Mus musculus [1] = assay: Antiseizure activity against electrical stimulus induced seizure in ip dosed CD-1 mouse model assessed as reduction in hindlimb tonic extension pretreated for 1 hr by maximal electroshock seizure test; assay type: functional, organism-based
[2] = biological target: Synaptic vesicle glycoprotein 2A (Mus musculus, UniProt Q9JIS5); assay: Binding affinity to mouse SV2A in presence of levetiracetam by radioligand binding assay
Chain of Synaptic vesicle glycoprotein 2A (Q9JIS5 whole entry): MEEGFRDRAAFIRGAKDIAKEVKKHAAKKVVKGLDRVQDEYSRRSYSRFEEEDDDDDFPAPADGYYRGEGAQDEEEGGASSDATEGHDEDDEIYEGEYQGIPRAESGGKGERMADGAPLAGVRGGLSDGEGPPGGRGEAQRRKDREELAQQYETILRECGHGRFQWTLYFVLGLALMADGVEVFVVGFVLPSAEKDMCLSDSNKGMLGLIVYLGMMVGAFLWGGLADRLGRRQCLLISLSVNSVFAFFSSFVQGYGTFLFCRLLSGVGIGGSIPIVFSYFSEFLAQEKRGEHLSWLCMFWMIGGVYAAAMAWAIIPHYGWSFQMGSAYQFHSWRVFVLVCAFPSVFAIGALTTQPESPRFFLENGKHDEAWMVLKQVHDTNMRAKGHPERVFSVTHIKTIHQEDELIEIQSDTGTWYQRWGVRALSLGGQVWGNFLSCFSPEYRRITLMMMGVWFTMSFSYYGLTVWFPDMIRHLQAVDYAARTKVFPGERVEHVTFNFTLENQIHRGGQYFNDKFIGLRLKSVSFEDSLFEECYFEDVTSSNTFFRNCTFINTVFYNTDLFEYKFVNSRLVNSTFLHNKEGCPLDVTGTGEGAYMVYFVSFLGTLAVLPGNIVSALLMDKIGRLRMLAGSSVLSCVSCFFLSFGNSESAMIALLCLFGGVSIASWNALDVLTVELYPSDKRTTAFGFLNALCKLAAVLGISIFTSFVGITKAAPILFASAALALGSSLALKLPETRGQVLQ

Mus musculus [3] = assay: Antiseizure activity against ScPTZ-induced seizure in ip dosed CD-1 mouse model assessed as clonic seizures pretreated for 1 hr and measured after 30 mins by subcutaneous pentylenetetrazole test; assay type: functional, organism-based
Mus musculus [4] = assay: Anti-seizure activity against electrical stimulus induced seizure in ip dosed CD-1 mouse model assessed as normal behavior within 10 seconds after stimulation at 6 Hz and 32 mA for 3 secs pretreated for […] by psychomotor seizure test; assay type: functional, organism-based
Mus musculus [5] = assay: Antiseizure activity against ScPTZ-induced seizure in ip dosed CD-1 mouse model assessed as clonic seizures pretreated for […] and measured after 30 mins by subcutaneous pentylenetetrazole test; assay type: functional, organism-based
[6] = biological target: Voltage-dependent T-type calcium channel subunit alpha-1H (Homo sapiens) (UniProt O95180); assay: Binding affinity to human Cav3.2 at 100 uM by Qpatch electrophysiological assay
Chain of Voltage-dependent T-type calcium channel subunit alpha-1H (Homo sapiens) (O95180 whole entry): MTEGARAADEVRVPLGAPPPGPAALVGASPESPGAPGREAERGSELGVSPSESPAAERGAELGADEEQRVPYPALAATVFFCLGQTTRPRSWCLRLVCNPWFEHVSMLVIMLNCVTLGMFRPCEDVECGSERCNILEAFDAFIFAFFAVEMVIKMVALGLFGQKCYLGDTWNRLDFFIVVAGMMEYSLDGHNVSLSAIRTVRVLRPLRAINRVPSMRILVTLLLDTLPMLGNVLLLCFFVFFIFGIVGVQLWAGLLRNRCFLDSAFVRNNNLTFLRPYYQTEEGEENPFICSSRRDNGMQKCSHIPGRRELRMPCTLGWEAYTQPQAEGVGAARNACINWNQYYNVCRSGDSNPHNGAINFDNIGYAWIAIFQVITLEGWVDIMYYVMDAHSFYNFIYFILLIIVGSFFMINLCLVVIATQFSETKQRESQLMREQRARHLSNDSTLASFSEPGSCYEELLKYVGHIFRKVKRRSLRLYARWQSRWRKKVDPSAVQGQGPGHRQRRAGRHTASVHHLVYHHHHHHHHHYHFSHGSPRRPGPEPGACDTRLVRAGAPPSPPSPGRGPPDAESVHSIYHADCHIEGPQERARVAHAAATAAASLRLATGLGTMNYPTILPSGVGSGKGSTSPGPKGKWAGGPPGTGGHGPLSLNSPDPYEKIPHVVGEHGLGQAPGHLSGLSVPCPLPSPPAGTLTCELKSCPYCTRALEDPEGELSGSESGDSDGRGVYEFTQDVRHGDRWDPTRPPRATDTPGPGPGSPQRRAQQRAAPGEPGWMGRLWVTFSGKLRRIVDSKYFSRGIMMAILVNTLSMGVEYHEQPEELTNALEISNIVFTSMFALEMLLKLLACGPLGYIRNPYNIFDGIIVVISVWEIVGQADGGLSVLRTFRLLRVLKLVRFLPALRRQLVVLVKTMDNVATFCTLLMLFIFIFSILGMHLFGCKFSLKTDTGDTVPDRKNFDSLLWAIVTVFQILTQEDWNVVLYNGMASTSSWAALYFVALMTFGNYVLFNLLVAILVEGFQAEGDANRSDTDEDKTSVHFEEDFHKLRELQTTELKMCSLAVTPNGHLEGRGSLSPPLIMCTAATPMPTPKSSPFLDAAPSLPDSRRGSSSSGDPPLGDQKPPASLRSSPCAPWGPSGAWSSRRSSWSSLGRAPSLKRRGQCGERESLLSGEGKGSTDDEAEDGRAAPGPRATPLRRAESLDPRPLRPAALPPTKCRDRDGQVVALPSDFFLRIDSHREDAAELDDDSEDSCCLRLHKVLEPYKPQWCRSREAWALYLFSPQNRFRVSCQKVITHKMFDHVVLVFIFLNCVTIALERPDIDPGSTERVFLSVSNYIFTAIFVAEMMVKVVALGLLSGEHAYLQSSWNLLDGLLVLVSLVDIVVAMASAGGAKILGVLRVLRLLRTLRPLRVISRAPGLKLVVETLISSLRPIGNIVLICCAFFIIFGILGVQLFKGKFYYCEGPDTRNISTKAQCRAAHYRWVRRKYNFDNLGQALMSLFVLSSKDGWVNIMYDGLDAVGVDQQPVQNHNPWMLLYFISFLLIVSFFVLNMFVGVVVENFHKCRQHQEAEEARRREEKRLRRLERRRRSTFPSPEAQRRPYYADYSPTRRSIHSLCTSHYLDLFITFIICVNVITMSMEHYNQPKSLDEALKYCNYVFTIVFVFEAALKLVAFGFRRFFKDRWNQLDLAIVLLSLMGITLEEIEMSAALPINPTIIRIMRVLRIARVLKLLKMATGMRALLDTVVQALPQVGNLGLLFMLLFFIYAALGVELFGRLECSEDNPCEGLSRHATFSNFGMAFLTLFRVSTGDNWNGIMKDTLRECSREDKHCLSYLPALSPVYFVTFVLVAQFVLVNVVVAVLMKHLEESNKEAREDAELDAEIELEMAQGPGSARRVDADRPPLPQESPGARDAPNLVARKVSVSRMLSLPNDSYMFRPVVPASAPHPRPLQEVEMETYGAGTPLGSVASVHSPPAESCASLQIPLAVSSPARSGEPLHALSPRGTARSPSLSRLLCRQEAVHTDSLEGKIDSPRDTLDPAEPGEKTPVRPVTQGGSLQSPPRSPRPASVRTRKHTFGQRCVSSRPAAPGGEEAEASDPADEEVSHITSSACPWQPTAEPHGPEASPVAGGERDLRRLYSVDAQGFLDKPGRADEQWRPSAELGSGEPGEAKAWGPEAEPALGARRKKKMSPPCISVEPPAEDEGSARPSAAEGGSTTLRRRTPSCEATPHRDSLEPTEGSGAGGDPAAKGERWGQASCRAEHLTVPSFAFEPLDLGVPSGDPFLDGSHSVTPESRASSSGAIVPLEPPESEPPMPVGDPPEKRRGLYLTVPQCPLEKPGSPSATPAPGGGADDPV

Mus musculus [7] = assay: Antiseizure activity against electrical stimulus induced seizure in ip dosed CD-1 mouse model assessed as normal behavior within 10 seconds after stimulation at 6 Hz and 32 mA for 3 secs pretreated for 0.5 hr by psychomotor seizure test; assay type: functional, organism-based
Homo sapiens = species: Homo sapiens; assay: Binding affinity to TTX-sensitive sodium channel (unknown origin) at 100 uM
Mus musculus [8] = species: Mus musculus; assay: animal or person; conditions: CD-1, 0.5 h
Mus musculus [9] = assay: Antiseizure activity against ScPTZ-induced seizure in ip dosed CD-1 mouse model assessed as clonic seizures pretreated for 0.5 hrs and measured after 30 mins by subcutaneous pentylenetetrazole test; assay type: functional, organism-based

For CC[C@@H](C(N)=O)N1CCCC1=O, the EC50 (Mus musculus [1]) was > 500 mg/kg.

In the case of C[C@@H](C(=O)NCc1ccccc1)N1C(=O)CCC1=O, the Ki [2] is reported as > 250 µM.

For C[C@H](C(=O)NCc1ccccc1)N1C(=O)CCC1=O, the Ki [2] was > 250 µM.

For C=C(C)[C@@H]1CCC(C)=C[C@H]1c1c(O)cc(CCCCC)cc1O [CANNABIDIOL], the EC50 (Mus musculus [1]) was 80 mg/kg and the EC50 (Mus musculus [3]) was 120 mg/kg.

In the case of CCC1(C)CC(=O)NC1=O (stereo not drawn) [ETHOSUXIMIDE], the EC50 (Mus musculus [4]) is reported as > 200 mg/kg, the EC50 (Mus musculus [5]) is reported as 140.4 mg/kg and the Activity [6] is reported as “Active”.

COC[C@@H](NC(C)=O)C(=O)NCc1ccccc1 [LACOSAMIDE] was tested, and the EC50 (Mus musculus [7]) was 5.3 mg/kg, the Activity (Homo sapiens) was “Active” and the ED50 (Mus musculus [8]) was 92 mg/kg.

Compound CCCC(CCC)C(=O)O [VALPROIC ACID] has an EC50 (Mus musculus [7]) of 130.6 mg/kg and an EC50 (Mus musculus [9]) of 239.4 mg/kg.
